As usually defined, the GI50 is the concentration that inhibits growth by half.

In one assay the test system is MCF-7. Nature of the assay: crystal violet proliferation assay. The format is cell-based, human. Conditions: normoxia, read-out: GI50 CV mean. The protocol:
Distinct MTT cell viability and crystal violet cell proliferation assays were performed to assess the cytotoxicity of the compounds 1–6 on 14 human cancer cell lines. In the viability assay, cells with intact mitochondria and thus active dehydrogenases are competent to convert MTT to the corresponding insoluble formazan. The formazan can be photometrically detected after solubilization and allows for indirect conclusions about the viability of the cells as an IC50 value. In the crystal violet assay, cells are stained by the binding of the dye to the chromatin, thus allowing for a quantification of biomass that remains adherent after a treatment in comparison with a control after a specific time. Potency is defined as the growth inhibitory concentration 50% (GI50).
The antiproliferative effect of the pentathiepins on human cancer cell lines was analyzed by crystal violet assay based on the protocol of a previous publication. […] After dissolving in ethanol, the optical density was measured. Here, 1000 cells (250 for LCLC-103H) in 0.1 mL of medium were seeded per well of a 96 well plate and incubated at standard conditions for 24 h prior to treatment to allow for adhesion of the cells. A serial dilution of the test compounds was prepared in medium, covering final concentrations from 10.0 to 0.04 µM and 0.1 mL of the working solution added to each well in triplicate. Additionally, samples for each cell line were seeded and directly fixed after 24 h to measure the cell density at the beginning of treatment (t0). Fixation was performed by replacing medium with 0.1 mL of a solution containing 1% glutaraldehyde in Dulbecco’s buffer (0.2 g/L KCl, 0.1 g/L MgSO4·7 H2O, 1.55 g/L Na2HPO4·7 H2O, 0.2 g/L KH2HPO4, and 8 g/L NaCl in water) for 20 min. Plates were stored in 0.1 mL of Dulbecco’s buffer until further processing. After 96 h of treatment, the same fixation process was applied to the plates containing cells and test compounds. To stain the cells, 0.1 mL of an aqueous solution of crystal violet (0.02%) was added per well for 20 min, then discarded and the plates afterwards rinsed in clear water for 30 min. The dye was extracted in 50 µL of ethanol per well during 2 h of shaking. The plates were read at λ = 570 nm using a SpectraMax 384plus (Molecular Devices, Sunnyvale, CA, USA), and the proliferation of the treatment conditions was calculated in relation to a solvent control sample after subtracting the background value of the T0-plates. The GI50 (half-maximal growth inhibitory concentration) was calculated via nonlinear regression followed by interpolation of the dose–response graphs in Prism 7 (GraphPad, San Diego, CA, USA).

In assay [1] the test system is HAP-1, HAP-1.KO.GPx1, A2780 and Siso. Nature of the assay: adapted MTT assay with ferrostatin-1 (ferroptosis). The format is cell-based, human. On the set-up: key: no impact (0); weak impact (+); strong impact (++). Particulars: summary grade. The protocol:
Not only apoptosis may contribute to the mainly ROS-based cytotoxicity of the pentathiepins but also ferroptosis, which derives from iron-dependent oxidative damage of the cell membrane. This form of programmed cell death is initiated via lipid peroxidation, which is normally held in check by the membrane-bound GPx4, an isoform of GPx1. As pentathiepins are potent GPx1 inhibitors, we indirectly investigated the possible role of GPx4 inhibition by precluding ferroptosis. Here, cells were incubated with a serial dilution of the respective pentathiepin, and either ferrostatin-1 (Fer-1) or vehicle control (DMSO) was added; Fer-1 is an established inhibitor of ferroptosis. The cell viability was measured after 48 h, and the activity of the compounds after adding or omitting Fer-1 was compared (Figure S50).
This experiment was performed similarly to that described in the previous section. To assess the importance of ferroptosis for cell death, a co-incubation of the cells with a serial dilution of the pentathiepins and ferrostatin-1 (Fer-1) as a known inhibitor of ferroptosis was performed. As negative control, the cells were incubated with the serial dilution of the test compounds and an amount of DMSO corresponding to the Fer-1 treatment solution. If ferroptosis were to be involved in the cytotoxicity of the compounds, the addition of Fer-1 should protect cells from the treatment with pentathiepin. […] The IC50 values were calculated as described above, and Fer-1-treated cells were set in relation to those without the additive.
Figure S50: Relative IC 50 in the four human cancer cell lines HAP -1, HAP -1.KO.GPx1, A2780 and Siso after treatment with pentathiepins 1-6 with either vehicle control (DMSO) or 1.5 or 6.0 µM ferrostatin -1 (Fer -1), respectively, for 48 h. The IC 50 of Fer-1-treated cells were relat ed to DMSO-treated samples (set to 1, dashed line) […]
(1 picture or pasted object on this page, not shown here)

Like-named read-outs stand apart in the source and are kept apart here.

As to `CCOc1c2c(c3cnc4[nH]c(-c5ccc(OC)cc5)cc4n13)SSSSS2` [Compound 1, 11-Ethoxy-2-(4-methoxyphenyl)-3H-[1,2,3,4,5]pentathiepino[6′,7′:3,4]pyrrolo[1,2-a]pyrrolo[2,3-e]pyrazine], the GI50 was 209 nM in the assay on MCF-7 (96 h) and 210 nM in the assay with MCF-7 (Homo sapiens, MCF7, 96 h). In assay [1], the Ferroptosis is listed as 0.
`CCOc1c2c(c3ccc(C(=O)N4CCCCC4)cn13)SSSSS2` [Compound 2, (6-Ethoxy-[1,2,3,4,5]pentathiepino[6,7-a]indolizin-9-yl)(piperidinyl)methanone]: in the assay on MCF-7 (Homo sapiens, MCF7, 96 h), the GI50 was 384 nM. For the same molecule, the Ferroptosis in assay [1] came out at 0.
The matching figures for `CCOc1c2c(c3ccc(C(=O)N4CCOCC4)cn13)SSSSS2` [Compound 3, (6-Ethoxy-[1,2,3,4,5]pentathiepino[6,7-a]indolizin-9-yl)(morpholino)methanone]: 153 nM and 0.
In the same order, the values of `CCOc1c2c(c3ccc(C(=O)N(CC)CC)cn13)SSSSS2` [Compound 4, 6-Ethoxy-N,N’-diethyl-[1,2,3,4,5]pentathiepino[6,7-a]indolizine-9-carboxamide] are 293 nM and 0.
The matching figures for `CCOc1c2c(c3ccc(C(=O)N4CCN(C(=O)c5ccc(F)cc5)CC4)cn13)SSSSS2` [Compound 5, (6-Ethoxy-[1,2,3,4,5]pentathiepino[6,7-a]indolizin-9-yl)(4-(4-fluorobenzoyl)piperazinyl)methanone]: 248 nM and 0.
In the case of `CCOc1c2c(c3ccc(C(=O)N4CCN(S(=O)(=O)c5ccc(C)cc5)CC4)cn13)SSSSS2` [Compound 6, (6-Ethoxy-[1,2,3,4,5]pentathiepino[6,7-a]indolizin-9-yl)(4-tosylpiperazinyl)methanone], the GI50 in the assay with MCF-7 (Homo sapiens, MCF7, 96 h) was found to be 458 nM. This molecule had a Ferroptosis in assay [1] of 0.

For the origin of these results see PMC8305076, “Comprehensive Evaluation of Biological Effects of Pentathiepins on Various Human Cancer Cell Lines and Insights into Their Mode of Action” (International Journal of Molecular Sciences, 2021).
